Measured values published in ChEMBL document CHEMBL2029311, “Design, synthesis, and evaluation of a novel class of 2,3-disubstituted-tetrahydro-β-carboline derivatives” (2012).

tested on: Mus musculus; test: Antiinflammatory activity in ICR mouse assessed as inhibition of xylene-induced ear edema at 100 mg/kg, po administered 30 mins before xylene challenge relative to control; assay type: functional

SMILES	inhibition in vivo at 100 mg/kg
CC(=O)Oc1ccccc1C(=O)O [ASPIRIN]	89.5%

tested on: Mus musculus; test: Antiinflammatory activity in ICR mouse assessed as inhibition of xylene-induced ear edema at 10 umol/kg, po administered 30 mins before xylene challenge relative to control; assay type: functional

SMILES	inhibition in vivo at 10 µmol/kg
CC(=O)OC[C@H]1O[C@@H](OC(C)=O)[C@H](NC(=O)[C@@H]2Cc3c([nH]c4ccccc34)CN2C(=O)OC(C)(C)C)[C@@H](OC(C)=O)[C@@H]1OC(C)=O	71.2%
CC(=O)OC[C@H]1O[C@@H](OC(C)=O)[C@H](NC(=O)[C@@H]2Cc3c([nH]c4ccccc34)CN2C(=O)[C@H](C)NC(=O)OC(C)(C)C)[C@@H](OC(C)=O)[C@@H]1OC(C)=O	82%
CC(=O)OC[C@H]1O[C@@H](OC(C)=O)[C@H](NC(=O)[C@@H]2Cc3c([nH]c4ccccc34)CN2C(=O)CNC(=O)OC(C)(C)C)[C@@H](OC(C)=O)[C@@H]1OC(C)=O	58.6%
C[C@H](NC(=O)OC(C)(C)C)C(=O)N1Cc2[nH]c3ccccc3c2C[C@H]1C(=O)N[C@H]1C(O)O[C@H](CO)[C@@H](O)[C@@H]1O (mixture of isomers)	51.9%
C[C@H](N)C(=O)N1Cc2[nH]c3ccccc3c2C[C@H]1C(=O)N[C@H]1C(O)O[C@H](CO)[C@@H](O)[C@@H]1O (mixture of isomers)	66%
